Laboratory results from patent US12297165B2, “Oligothioetheramides (oligoteas) as anti-microbial and anti-bacterial agents” (Cornell University, priority 2017, dated 2025).

Tests used:
Format in all cases: cell-based
[1] = system: cell membrane of methicillin resistant Staphylococcus aureus (MRSA); assay: Membrane permeabilization propidium iodide (PI) assay, MRSA
bacterial membrane = assay: Cytoplasmic permeability assay with propidium iodide, fluorescence microscopy; conditions: incubated with PI
Procedure: Membrane permeabilization propidium iodide (PI) assay: 1 mM BDT-4G stock solutions were prepared in DMSO. B. subtilis strains were streaked onto a Luria Broth (LB) agar plate and incubated overnight. One colony was selected and incubated in LB overnight, then subcultured and incubated until the OD600 measured between 0.5 and 0.6. Bacteria were harvested, washed, and resuspended in a solution of 5 mM HEPES, 5 mM glucose, and 10 μM propidium iodide. 150 μL bacteria solution was added to each well of a black 96 well plate. Fluorescence measurements were taken at 535 nm excitation, 617 nm emission on a TECAN Infinite M1000 PRO Microplate reader (Männdorf) (TECAN) for 2 minutes. BDT-4G stock solution was added for a concentration of 15 μg/mL, and fluorescence measurements were taken for an additional 20 minutes.
Membrane permeabilization dictates lytic potential. A cytoplasmic permeability assay was performed using propidium iodide (PI). PI is a cell impermeant intercalating agent that fluoresces when bound to nucleic acids. As such, PI can be used to identify cells with compromised membranes by measuring an increase in fluorescence above the baseline. This phenomenon was qualitatively confirmed by performing fluorescence microscopy studies incubated with PI with or without the AOTs. […]

[2] = system: community associated Staphylococcus aureus (strain USA300); assay: Minimum inhibitory concentration (MIC) assay, S. aureus USA300
Procedure: (§1) Biological Assays: Minimum inhibitory concentration (MIC) assay: A single bacterial colony (Bacillus subtilis (B. subtilis) or methicillin-resistant Staphylococcus aureus (MRSA)) was selected and incubated in media (Luria Broth (LB) for B. subtilis or Tryptic Soy Broth (TSB) for MRSA) at 37° C. overnight. This was sub-cultured in media and incubated at 37° C. until the OD600 was approximately 0.5 (2.5-3.5-hour incubation). The subculture was diluted with media to an OD600 of 0.001. Diluted subculture and 1 mM stocks of compounds to be tested were added to a clear 96-well plate, and serially diluted by a factor of 0.5. The well plate was incubated overnight and the absorbance was measured at 600 nm using the TECAN. To determine the MIC in presence of serum, assays were repeated using media with 20% heat-inactivated mouse serum or 20% fetal bovine serum. […] The MIC50 was calculated using a 4PL sigmoidal nonlinear regression on Prism. The MIC100 was calculated as the first point below 10% of the maximum.

Bacillus subtilis = assay: Minimum inhibitory concentration (MIC) assay, B. subtilis
Procedure: as §1
The MIC of PEG24-LL-PDT4G against B. subtilis was compared with the MIC of unmodified PDT-4G. Both compounds were pre-incubated with B. subtilis supernatant for 0, 4, or 24 hours before the MIC assay to test cleavage kinetics (FIG. 53).

[3] = system: methicillin resistant Staphylococcus aureus (MRSA) (ATCC 33591); assay: Minimum inhibitory concentration (MIC) assay, MRSA
Procedure: as §1

E. coli = assay: Minimum inhibitory concentration (MIC) assay, E. coli
[4] = system: Pseudomonas aeruginosa (PA-14, PA-1); assay: MIC assay, Pseudomonas aeruginosa strains; conditions: Pseudomonas aeruginosa PA-14 and PA-1
From the text: PA-14 is a highly virulent Pseudomonas aeruginosa strain (Gram-negative) that is difficult to treat. PA-1 is a meropenem resistant clinical isolate of Pseudomonas aeruginosa that was obtained from a patient. Meropenem, vancomycin and polymyxin B are commercial antibiotics that are used as controls.

[5] = normal (Tryptic Soy media) media
[6] = presence of elevated calcium and magnesium ions (25 mM) and presence of heat-inactivated fetal bovine serum
[7] = presence of elevated calcium and magnesium ions (25 mM)

## CN[C@H](CC(C)C)C(=O)N[C@H]1C(=O)N[C@@H](CC(N)=O)C(=O)N[C@H]2C(=O)N[C@H]3C(=O)N[C@H](C(=O)N[C@H](C(=O)O)c4cc(O)cc(O)c4-c4cc3ccc4O)[C@H](O)c3ccc(c(Cl)c3)Oc3cc2cc(c3O[C@@H]2O[C@H](CO)[C@@H](O)[C@H](O)[C@H]2O[C@H]2C[C@](C)(N)[C@H](O)[C@H](C)O2)Oc2ccc(cc2Cl)[C@H]1O [Vancomycin]
[1]
  membrane destabilization (diffusion of propidium iodide dye into the cell): no membrane compromise
Bacterial membrane
  propidium iodide entry into cells (staining): PI was unable to gain entry into cells

## C=CCN(CCNC(=N)N)C(=O)CCSCCCCSCCCN(CCNC(=N)N)C(=O)CCSCCCCSCCCN(CCNC(=N)N)C(=O)CCSCCCCSCCCN(CCNC(=N)N)C(=O)CCSCCCCSCCCN(CCNC(=N)N)C(=O)CCSCCCCSCCCN [BDT-5G]
[2]; [5]
  antibacterial activity (MIC100) against Staphylococcus aureus strain USA300: show activity
[2]; [6]
  antibacterial activity (MIC100) against Staphylococcus aureus strain USA300: maintain their antibacterial activity
Bacillus subtilis; normal (LB media) media
  antibacterial activity (MIC100) against Bacillus subtilis: show activity
Bacillus subtilis; [7]
  antibacterial activity (MIC100) against Bacillus subtilis: maintain their antibacterial activity
[3]; [5]
  antibacterial activity (MIC100) against MRSA: show activity
[3]; [6]
  antibacterial activity (MIC100) against MRSA: maintain their antibacterial activity
E. coli; normal (LB media) media
  antibacterial activity (MIC100) against E. coli: show activity
E. coli; [7]
  antibacterial activity (MIC100) against E. coli: maintain their antibacterial activity

## C=CCN(CCNC(=N)N)C(=O)CCSCCCSCCCN(CCNC(=N)N)C(=O)CCSCc1cccc(CSCCCN(CCNC(=N)N)C(=O)CCSCCCSCCCN)c1 [3GMG3G]
[4]
  activity relative to the para substituted compound (3GPG3G): 2-4 fold

## CCCCCCCCCC(=O)N[C@@H](Cc1c[nH]c2ccccc12)C(=O)N[C@H](CC(N)=O)C(=O)N[C@@H](CC(=O)O)C(=O)N[C@@H]1C(=O)NCC(=O)N[C@@H](CCCN)C(=O)N[C@@H](CC(=O)O)C(=O)N[C@H](C)C(=O)N[C@@H](CC(=O)O)C(=O)NCC(=O)N[C@H](CO)C(=O)N[C@@H]([C@H](C)CC(=O)O)C(=O)N[C@@H](CC(=O)c2ccccc2N)C(=O)O[C@@H]1C [daptomycin]
[1]
  membrane destabilization (diffusion of propidium iodide dye into the cell): no membrane compromise
